Source: patent publication US20040141912A1, “Method for targeting chemical compounds to cells and pharmaceutical compositions used therein” (priority 2001, published 2004)
Entries after “also recorded” stand apart in the source; their conditions may differ.

Experiments:
Type in all cases: cell-based, human
Jurkat cells [1] = assay: FACS analysis of DDC uptake by Jurkat cells induced to undergo apoptosis by anti-Fas antibody (PI co-staining)
Procedure: FIG. 3: Cultured Jurkat cells (A) were induced to undergo apoptosis by anti-Fas antibody (0.1 μg/ml) for three hours. Subsequently, both control cells (A and C) and apoptotic cells (B and D) were then incubated with 50 μM of DDC in the presence (C and D) and absence (A and B) of 1 μM of rottlerin, an inhibitor of PKCδ. Prior to FACS analysis, cells were also co-stained with propidium iodide (PI), a marker of membrane disintegration during late phases of cell death. In the shown dot plot, the left lower quadrant represents the healthy, non-stained fraction of cells. The right lower quadrant represents the newly formed population of cells in the early stages of apoptosis. These cells are PLS-activated cells, yet still maintaining membrane integrity and thus excluding PI. Cells binding both DDC and PI, i.e., cells in the late stages of apoptosis are represented in the right upper quadrant. The induction of apoptosis was associated with the emergence of a marked, distinct population of cells in the early stages of the apoptotic process, selectively binding DDC and occupying the right lower quadrant of the plot. […] UV axis denotes fluorescence intensity of DDC; FL2 axis denotes fluorescence intensity of PI.
FIG. 4: Jurkat cells were induced to undergo apoptosis by treatment with anti-Fas Ab (0.1 μg/ml) for three hours. Subsequently, cells were co-incubated with 50 μM of DDC and PI, in the presence of 1 mM of CaCl2, or under conditions of calcium deprivation (i.e., co-administration of the calcium chelators BAPTA and EGTA). Binding of DDC and PI was evaluated by FACS.
FIG. 4A: A and C: control cells; B and D: apoptotic cells; A and B: with Ca^2+; C and D: deprivation of Ca^2+. The lower left quadrant in each dot plot represents the healthy non-stained fraction of cells. The lower right quadrant represents the newly formed population of cells in the early stages of apoptosis, characterized by activation of PLS, but still maintaining membrane integrity. […] However, DDC binding to the cells in early apoptosis was markedly lost upon inhibition of PLS by calcium deprivation (B versus D).
Cultured Jurkat cells were grown as described in Example 1, and apoptosis was then triggered by treatment with anti-Fas Ab (0.1 μg/ml) for three hours, thus inducing […] activation in these cells.
In order to inhibit PLS activity in the apoptotic cells, rottlerin was used (Calbiochem, Germany). […] Subsequent to induction of apoptosis, cells were incubated for 40 minutes with rottlerin, at a concentration of 1 μM, were then subjected to treatment with DDC at a concentration of […] and immediately taken for FACS analysis (FIG. 3).
Inhibition of PLS activity in the apoptotic cells was also achieved by reduction of ambient Ca^2+ levels. Following induction of apoptosis, both control and apoptotic cells (1×10^7 cells) were subjected to Ca^2+-deprivation, by co-treatment with BAPTA (20 μM) and EGTA (1 mM) for 30 minutes. Cells were then treated with DDC (250 μM) and propidium iodide (PI). Binding of DDC to these Ca^2+-deprived cells and to control, Ca^2+-treated (1 mM) cells was analyzed by FACS, and the dot plot is shown in FIG. 4A. The lower left quadrant in each dot plot represents the healthy fraction of cells. The lower right quadrant represents the newly-formed population of cells in the early stages of apoptosis, still maintaining membrane integrity but characterized by activation of PLS. As shown, these cells manifest DDC binding while excluding PI. The upper right quadrant represents cells in the late stages of apoptosis, characterized by disintegration of the plasma membrane, thus unselectively permeable to compounds including PI, that is normally excluded from healthy cells.
Induction of apoptosis is a major pathway for the activation of PLS. […] For this purpose, apoptosis was triggered in cultured Jurkat cells by treatment with anti-Fas antibody. […]

Jurkat cells [2] = assay: FACS analysis of NST830 uptake by Jurkat cells induced to undergo apoptosis by anti-Fas antibody (PI co-staining); conditions: upper right quadrant
Procedure: FIG. 7 Jurkat cells were induced to undergo apoptosis by anti-Fas Ab treatment as described for FIG. 3 above. Subsequently, cells were incubated with 50 μM of NST830 for 5 minutes, co-stained with PI and subjected to FACS analysis. In order to inhibit PLS in apoptotic cells, two approaches were used:
(i). Ca^2+-deprivation: apoptotic cells were incubated for 30 min at room temperature in the presence of BAPTA (20 μM) and EGTA (1 mM), and then treated with NST830 and PI as above.
(ii). PLS inhibition by rottlerin: prior to treatment with NST830 and PI, apoptotic cells were incubated for 40 min in the presence of 0.5 μM of rottlerin, and then submitted to FACS analysis.
Cultured Jurkat cells were induced to undergo apoptosis by anti-Fas antibody (0.1 μg/ml) for 2.5 hours, as described in Example 1. Subsequently, both control and apoptotic cells were incubated with 50 μM of NST830 for 5 minutes, and uptake was measured by FACS. Prior to FACS analysis, cells were also co-stained with PI. Induction of apoptosis was associated with the emergence of a large, distinct population of 64% of cells in the early stages of the apoptotic process, selectively binding NST830 and occupying the right lower quadrant of the plot. No substantial change was observed under these conditions in the percentage of cells in late apoptosis, that are unselectively permeable to PI and NST830. […]

Jurkat cells [3] = assay: FACS analysis of DDC uptake by Jurkat cells induced to undergo apoptosis by anti-Fas antibody (PI co-staining); remark: listed apart in the source

CN(C)c1cccc2c(S(=O)(=O)NC(CSSCC(NS(=O)(=O)c3cccc4c(N(C)C)cccc34)C(=O)O)C(=O)O)cccc12 (stereo not drawn) [DDC]
Binding of DDC to cells in the late stages of apoptosis upon calcium deprivation (Jurkat cells [1]; PI-permeable cells, BAPTA + EGTA): no effect of PLS inhibition; also recorded: did not affect binding of DDC | Cells in the early stages of apoptosis binding DDC (right lower quadrant) (Jurkat cells [1]; apoptotic cells (anti-Fas 0.1 μg/ml 3 h), absence of rottlerin): 46% | Uptake of DDC by cells in the early stages of apoptosis (Jurkat cells [1]; apoptotic cells (anti-Fas), with Ca2+ 1 mM): 38.4% | Uptake of DDC by cells in the early stages of apoptosis (Jurkat cells [1]; apoptotic cells, Ca2+-deprivation: BAPTA 20 μM + EGTA 1 mM, 30 min): 8.89% | Cells in the early stages of apoptosis binding DDC (right lower quadrant) (Jurkat cells [1]; apoptotic cells, rottlerin 1 μM (PKCδ inhibitor), 40 min): 7.9% | Uptake of DDC (early-apoptosis quadrant) (Jurkat cells [1]; control cells, with Ca2+ 1 mM): 4.11% | DDC binding to cells in the late stages of apoptosis in response to rottlerin (Jurkat cells [1]; right upper quadrant (DDC and PI positive), rottlerin 1 μM): did not manifest alterations in DDC binding | NST830-binding, PI-permeable late apoptotic cells upon Ca2+-deprivation (Jurkat cells [2]; BAPTA + EGTA): unaffected | NST830-binding, PI-permeable late apoptotic cells in the presence of rottlerin (Jurkat cells [2]; rottlerin 0.5 μM): no change was detected | DDC binding by cells in early apoptosis with pan-caspase inhibitor (Jurkat cells [3]; anti-Fas 3 h + Z-VAD-fmk 50 μM, DDC 50 μM 5 min): abolished this DDC binding | DDC binding by cells in early apoptosis (peak B) (Jurkat cells [3]; anti-Fas 3 h without Z-VAD-fmk, DDC 50 μM 5 min): marked DDC binding | DDC binding to cells in the late stages of apoptosis (peak C) with pan-caspase inhibitor (Jurkat cells [3]; anti-Fas + Z-VAD-fmk 50 μM): no significant alterations
